Measurements as given in EP4813999A1, “NOVEL PEPTIDE DERIVATIVE AND PHARMACEUTICAL COMPOSITION FOR PREVENTING OR TREATING MACULAR DEGENERATION COMPRISING SAME” (Supadelixir Inc., priority 2023, dated 2026).

Assays:
HUVECs = assay: Cytotoxicity of test substance (CCK-8 cell viability); assay type: cell-based, human; details: 24, 48 and 72 hours, up to a concentration of 1,000 nM (1 µM), relative to untreated group at 24 hours
Method: The anti-angiogenic activity of the test substance (SE101B2L) was evaluated using HUVECs. HUVECs were cultured in CEFOgro-HUVEC basal medium (CEFO Co., Ltd.) supplemented with growth supplements containing vascular endothelial cell growth-related factors and serum (HUVEC supplements, CEFO Co., Ltd.), which was used as vascular endothelial cell growth medium (hereinafter denoted as "growth medium").
HUVECs were seeded into a 96-well plate at 5 × 10^3 cells per well together with 0.1 ml of growth medium. After incubation for one day, the cells were treated with the test substance (SE101B2L) such that the final concentration increased tenfold from 0.001 nM (denoted as log -3) to 10,000 nM (denoted as log 4). Thereafter, test groups were incubated for 24, 48, and 72 hours, and Cell Counting Kit-8 (CCK-8) was added at each predetermined time point, followed by incubation for an additional 2 hours, and absorbance was measured at 450 nm. Cell viability was calculated relative to the absorbance value of the untreated group at 24 hours.

AKT and ERK = assay: VEGF-induced phosphorylation of AKT and ERK (immunoblot); assay type: cell-based, human; details: HUVECs; VEGF co-treatment; test substance 0.1, 1, 10, 100 nM; 10 minutes
Method: The experiment was conducted by dividing the groups into an untreated group, a group treated with VEGF alone, and a group co-treated with VEGF and the test substance (SE101B2L).
Additionally, whether the test substance could regulate the phosphorylation levels of AKT and ERK molecules, which are important in signaling related to VEGF-induced angiogenesis, was tested. Into a 6-well plate containing 2 ml of growth medium, 2 × 10^5 HUVECs were added and seeded, followed by incubation in an incubator with 5% CO2 at 37°C for one day. Subsequently, after washing the cells with phosphate-buffered saline (PBS), incubation was performed for an additional 6 hours using CEFOgro-HUVEC medium containing 1% fetal bovine serum. The prepared cells were divided into an untreated group, a group treated with VEGF alone, and groups co-treated with VEGF and the test substance (0.1, 1, 10, and 100 nM), followed by treatment with the test substance. […] Protein amounts of the cell lysates were measured by a Bradford assay, followed by separation using sodium dodecyl sulfate-polyacrylamide gel electrophoresis (SDS-PAGE). […]

In the case of “decylbenzoyl-Cys-Phe-Lys-amide [SE101B2L]”, the “cell viability (cytotoxicity)” value (HUVECs) is reported as “no significant difference in cell viability” and the “phosphorylation levels of signaling molecules (AKT, ERK)” value (AKT and ERK) is reported as “reduced by the test substance in a concentration-dependent manner”.
